Assay results as given in the NIST ThermoML archive (doi:10.1016/j.jct.2004.12.014).

Key:
[1] = excess molar enthalpy (molar enthalpy of mixing); xn = mol fraction of the nth substance listed; details: 318.15 K, 101 kPa, Liquid
[2] = xn = mol fraction of the nth substance listed; details: 318.15 K, 101 kPa, Liquid

CCC(=O)OC [methyl propanoate] + CCCCCCCCCCC
Details	excess molar enthalpy [kcal/mol]	excess molar volume [m3/mol]
[1], x1 = 0.0844	0.118	–
[1], x1 = 0.1733	0.219	–
[1], x1 = 0.2574	0.3	–
[1], x1 = 0.327	0.355	–
[1], x1 = 0.3915	0.394	–
[1], x1 = 0.4431	0.416	–
[1], x1 = 0.4953	0.432	–
[1], x1 = 0.5414	0.436	–
[1], x1 = 0.5798	0.434	–
[1], x1 = 0.6125	0.428	–
[1], x1 = 0.6312	0.422	–
[1], x1 = 0.6661	0.406	–
[1], x1 = 0.7078	0.382	–
[1], x1 = 0.7509	0.348	–
[1], x1 = 0.7942	0.307	–
[1], x1 = 0.8346	0.263	–
[1], x1 = 0.8799	0.21	–
[1], x1 = 0.9235	0.148	–
[1], x1 = 0.9624	0.0795	–
[2], x1 = 0.0968	–	4.8e-07
[2], x1 = 0.1299	–	6.34e-07
[2], x1 = 0.2313	–	1.02e-06
[2], x1 = 0.3207	–	1.285e-06
[2], x1 = 0.4052	–	1.433e-06
[2], x1 = 0.4772	–	1.508e-06
[2], x1 = 0.5465	–	1.514e-06
[2], x1 = 0.6062	–	1.482e-06
[2], x1 = 0.6609	–	1.417e-06
[2], x1 = 0.7121	–	1.302e-06
[2], x1 = 0.7581	–	1.188e-06
[2], x1 = 0.8001	–	1.041e-06
[2], x1 = 0.8396	–	9.14e-07
[2], x1 = 0.876	–	7.62e-07
[2], x1 = 0.9105	–	6.09e-07
[2], x1 = 0.9416	–	4.25e-07
[2], x1 = 0.9727	–	2.27e-07

CCCCCCCCCCCCCCC [pentadecane] + CCC(=O)OC
Details	excess molar enthalpy [kcal/mol]	excess molar volume [m3/mol]
[1], x2 = 0.125	0.172	–
[1], x2 = 0.233	0.296	–
[1], x2 = 0.3463	0.398	–
[1], x2 = 0.435	0.457	–
[1], x2 = 0.5058	0.486	–
[1], x2 = 0.5584	0.495	–
[1], x2 = 0.6021	0.495	–
[1], x2 = 0.6368	0.487	–
[1], x2 = 0.6819	0.466	–
[1], x2 = 0.7197	0.439	–
[1], x2 = 0.7527	0.408	–
[1], x2 = 0.7913	0.367	–
[1], x2 = 0.8294	0.318	–
[1], x2 = 0.8668	0.272	–
[1], x2 = 0.9037	0.217	–
[1], x2 = 0.94	0.151	–
[1], x2 = 0.9713	0.0789	–
[2], x2 = 0.0815	–	3.78e-07
[2], x2 = 0.1606	–	7e-07
[2], x2 = 0.2792	–	1.134e-06
[2], x2 = 0.377	–	1.401e-06
[2], x2 = 0.4695	–	1.535e-06
[2], x2 = 0.5395	–	1.586e-06
[2], x2 = 0.6103	–	1.569e-06
[2], x2 = 0.6695	–	1.514e-06
[2], x2 = 0.7187	–	1.405e-06
[2], x2 = 0.7639	–	1.277e-06
[2], x2 = 0.8034	–	1.137e-06
[2], x2 = 0.8389	–	1.001e-06
[2], x2 = 0.8718	–	8.65e-07
[2], x2 = 0.9023	–	7.29e-07
[2], x2 = 0.9297	–	5.72e-07
[2], x2 = 0.9549	–	4.07e-07
[2], x2 = 0.9781	–	2.28e-07

CCCCCCCCCCCCCCC [pentadecane] + CCCCOC(=O)CC
Details	excess molar enthalpy [kcal/mol]	excess molar volume [m3/mol]
[1], x2 = 0.0761	0.0789	–
[1], x2 = 0.1691	0.151	–
[1], x2 = 0.2538	0.211	–
[1], x2 = 0.3371	0.253	–
[1], x2 = 0.4082	0.279	–
[1], x2 = 0.4663	0.291	–
[1], x2 = 0.5154	0.294	–
[1], x2 = 0.5563	0.292	–
[1], x2 = 0.5938	0.288	–
[1], x2 = 0.6011	0.287	–
[1], x2 = 0.6427	0.276	–
[1], x2 = 0.6861	0.262	–
[1], x2 = 0.7321	0.242	–
[1], x2 = 0.7784	0.215	–
[1], x2 = 0.8262	0.18	–
[1], x2 = 0.8732	0.142	–
[1], x2 = 0.9184	0.0978	–
[1], x2 = 0.9612	0.0508	–
[2], x2 = 0.0505	–	1.65e-07
[2], x2 = 0.0965	–	3.01e-07
[2], x2 = 0.197	–	5.5e-07
[2], x2 = 0.2885	–	7.14e-07
[2], x2 = 0.372	–	8.22e-07
[2], x2 = 0.4383	–	8.58e-07
[2], x2 = 0.5036	–	8.89e-07
[2], x2 = 0.5649	–	8.8e-07
[2], x2 = 0.6245	–	8.56e-07
[2], x2 = 0.6765	–	8.1e-07
[2], x2 = 0.7278	–	7.63e-07
[2], x2 = 0.7734	–	6.88e-07
[2], x2 = 0.817	–	5.89e-07
[2], x2 = 0.8567	–	4.91e-07
[2], x2 = 0.897	–	3.82e-07
[2], x2 = 0.9328	–	2.79e-07
[2], x2 = 0.9665	–	1.56e-07
